Assay results taken from the supplement of paper PMC10883282.

What was measured:
Test in all cases: relative viability vs DMSO control (72 h) (fraction); higher = more viable cells
[1] = test system: SK-LMS-1
In short: (§1)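 Sarcoma cell lines were seeded in 384-well plates at densities chosen for 80–90% confluence, then 24 h later given 2.5 µl of serially diluted compound drawn from source plates spanning 10 mM to 0.0002 mM. They were held 72 h at 37 °C, 5% CO2, with 0.1% DMSO vehicle and a 5 µM positive control included. Relative viability was read with ATPLite as percent growth and averaged over up to triplicate wells. Rescaling placed full at 1 and none at 0.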

[2] = test system: G401
In short: as §1

[3] = test system: RD-ES
In short: as §1

[4] = test system: KHOS-NP
In short: as §1

[5] = test system: SW872
In short: as §1

[6] = test system: MES-SA
In short: as §1

[7] = test system: VA-ES-BJ
In short: as §1

[8] = test system: SW1353
In short: as §1

[9] = test system: HT1080
In short: as §1

[10] = test system: RD
In short: as §1

[11] = test system: SW684
In short: as §1

[12] = test system: SK-ES-1
In short: as §1

CNC(=O)c1nnc(NC(=O)C2CC2)cc1Nc1cccc(-c2ncn(C)n2)c1OC
Settings	relative viability
[1], 0.00017 µM	1.09
[1], 0.00051 µM	1.09
[1], 0.00152 µM	1.06
[1], 0.00457 µM	1.08
[1], 0.01372 µM	1.1
[1], 0.04115 µM	1.06
[1], 0.1235 µM	1.08
[1], 0.3704 µM	1.06
[1], 1.111 µM	1.05
[1], 3.333 µM	1.06
[1], 10 µM	0.797
[2], 0.00017 µM	1
[2], 0.00051 µM	0.988
[2], 0.00152 µM	1.03
[2], 0.00457 µM	1.03
[2], 0.01372 µM	1.074
[2], 0.04115 µM	1.02
[2], 0.1235 µM	1.04
[2], 0.3704 µM	1.031
[2], 1.111 µM	1.013
[2], 3.333 µM	0.999
[2], 10 µM	0.906
[3], 0.00017 µM	0.987
[3], 0.00051 µM	1.019
[3], 0.00152 µM	1.01
[3], 0.00457 µM	0.988
[3], 0.01372 µM	1.02
[3], 0.04115 µM	1.02
[3], 0.1235 µM	1.05
[3], 0.3704 µM	1.06
[3], 1.111 µM	1
[3], 3.333 µM	0.998
[3], 10 µM	0.847
[4], 0.00017 µM	1.07
[4], 0.00051 µM	1.08
[4], 0.00152 µM	1.063
[4], 0.00457 µM	1.06
[4], 0.01372 µM	1.07
[4], 0.04115 µM	1.076
[4], 0.1235 µM	1.08
[4], 0.3704 µM	1.07
[4], 1.111 µM	1.061
[4], 3.333 µM	1.09
[4], 10 µM	1.05
[5], 0.00017 µM	1.01
[5], 0.00051 µM	1
[5], 0.00152 µM	0.995
[5], 0.00457 µM	1.026
[5], 0.01372 µM	1.01
[5], 0.04115 µM	1.02
[5], 0.1235 µM	1.03
[5], 0.3704 µM	1.02
[5], 1.111 µM	1.02
[5], 3.333 µM	0.957
[5], 10 µM	0.768
[6], 0.00017 µM	0.926
[6], 0.00051 µM	0.938
[6], 0.00152 µM	0.926
[6], 0.00457 µM	0.92
[6], 0.01372 µM	0.943
[6], 0.04115 µM	0.952
[6], 0.1235 µM	0.944
[6], 0.3704 µM	0.943
[6], 1.111 µM	0.923
[6], 3.333 µM	0.891
[6], 10 µM	0.669
[7], 0.00017 µM	0.986
[7], 0.00051 µM	0.996
[7], 0.00152 µM	1.02
[7], 0.00457 µM	1.04
[7], 0.01372 µM	1.035
[7], 0.04115 µM	1.03
[7], 0.1235 µM	1.03
[7], 0.3704 µM	1.01
[7], 1.111 µM	1.04
[7], 3.333 µM	0.974
[7], 10 µM	0.828
[8], 0.00017 µM	0.962
[8], 0.00051 µM	0.988
[8], 0.00152 µM	0.968
[8], 0.00457 µM	1
[8], 0.01372 µM	0.985
[8], 0.04115 µM	0.982
[8], 0.1235 µM	0.978
[8], 0.3704 µM	0.964
[8], 1.111 µM	0.948
[8], 3.333 µM	0.9937
[8], 10 µM	0.911
[9], 0.00017 µM	1.07
[9], 0.00051 µM	1.04
[9], 0.00152 µM	1.05
[9], 0.00457 µM	1.03
[9], 0.01372 µM	1.02
[9], 0.04115 µM	1.05
[9], 0.1235 µM	1.01
[9], 0.3704 µM	1.042
[9], 1.111 µM	1.1
[9], 3.333 µM	1.11
[9], 10 µM	0.995
[10], 0.00017 µM	1.1
[10], 0.00051 µM	1.11
[10], 0.00152 µM	1.12
[10], 0.00457 µM	1.12
[10], 0.01372 µM	1.1
[10], 0.04115 µM	1.09
[10], 0.1235 µM	1.11
[10], 0.3704 µM	1.08
[10], 1.111 µM	1.1
[10], 3.333 µM	1.09
[10], 10 µM	0.994
[11], 0.00017 µM	1.16
[11], 0.00051 µM	1.15
[11], 0.00152 µM	1.18
[11], 0.00457 µM	1.15
[11], 0.01372 µM	1.17
[11], 0.04115 µM	1.17
[11], 0.1235 µM	1.18
[11], 0.3704 µM	1.2
[11], 1.111 µM	1.15
[11], 3.333 µM	1.14
[11], 10 µM	1.12
[12], 0.00017 µM	1.03
[12], 0.00051 µM	1.03
[12], 0.00152 µM	1.1
[12], 0.00457 µM	1.03
[12], 0.01372 µM	1.07
[12], 0.04115 µM	1.04
[12], 0.1235 µM	1.02
[12], 0.3704 µM	1.04
[12], 1.111 µM	0.968
[12], 3.333 µM	0.891
[12], 10 µM	0.517
